Assay results reported in patent publication US20090118318A1, “Novel Diazaspiroalkanes and Their Use for Treatment of CCR8 Mediated Diseases” (priority 2005, published 2009).

Experiments:
[1] = biological target: T1, human recombinant chemokine CCR8 receptor (Homo sapiens, UniProt P51685); experiment: CCL1 SPA Binding Assay; settings: inhibition of 125I CCL1 binding to CCR8 membranes from transfected CHO-K1 cells
T1 construct: purchased Euroscreen ES-136-M; host or cells: CHO-K1 cells (transfected), membrane preparation
T1 sequence (P51685 whole entry): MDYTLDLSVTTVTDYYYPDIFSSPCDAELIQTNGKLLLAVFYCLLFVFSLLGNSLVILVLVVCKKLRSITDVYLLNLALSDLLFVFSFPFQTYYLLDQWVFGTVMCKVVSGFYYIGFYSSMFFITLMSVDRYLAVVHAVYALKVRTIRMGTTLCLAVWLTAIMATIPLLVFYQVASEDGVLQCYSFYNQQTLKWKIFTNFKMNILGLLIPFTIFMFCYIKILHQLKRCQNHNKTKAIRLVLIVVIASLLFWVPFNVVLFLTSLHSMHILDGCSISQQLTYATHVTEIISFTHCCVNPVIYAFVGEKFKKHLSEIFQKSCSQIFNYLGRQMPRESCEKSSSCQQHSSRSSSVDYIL
Method: Membranes from CHO-K1 cells transfected with human recombinant chemokine CCR8 receptor (ES-136-M) were purchased from Euroscreen. Membrane preparations are stored at −70C in 7.5 mM Tris-Cl pH 7.5, 12.5 mM MgCl2, 0.3 mM EDTA, 1 mM EGTA, 250 mM sucrose until used.
The CCR8 membranes ([…]) were preincubated with Wheat Germ Agglutinin SPA beads (4.05 mg/ml) in assay buffer (50 mM HEPES, 1 mM CaCl2x2H2O, 5 mM MgCl2x6H2O, 75 mM NaCl, 0.1% BSA) at pH=7.4 for 2 hours on ice. A […] dose-response curve (final concentrations 50 μM, 16.7 μM, 5.6 μM, 1.9 μM, 0.62 μM, 0.21 μM, 0.069 μM, 0.023 μM) was prepared by diluting compounds by serial dilution 1:3 in DMSO. In the screening plate (Polystyrene NBS plates, Costar Corning 3604) 1 μl from the DMSO solutions of compounds was transferred into each well. 1 μl of DMSO was added to the blank control wells and 1 μl unlabeled CCL1 ([…]) was added to background control wells. 50 μl of the SPA bead-membrane mixture was added into each well. Finally, 50 μl ([…]) ^125I CCL1 (2000 Ci/mM) was added to each well. Plates were then incubated at RT with shaking (700 rpm) for 90 minutes followed by 30 minutes at RT without shaking. The plate was read in a Wallac MicroBeta counter for 2 minutes/well.

[2] = Human Microsomal Stability Assay; assay type: in vitro ADME; settings: human microsomes (Xenotech); human microsomes 1 mg protein/mL, compound 2.5 μM, NADPH 2 mM, pH 7.4, 37° C.; read-out: Intrinsic clearance
Method: Human Microsomal Stability Assay
Samples at four time-points (0, 5, 15 and 30 minutes) are withdrawn and the enzymatic reaction is terminated by protein precipitation with 1% acetic acid in acetonitrile. The incubations are performed on a thermostated plate (37° C.) placed on a Tecan worktable, and all liquid handling was performed robotically. After centrifugation of the samples, the supernatants are pooled in sets of four before they are analysed by liquid chromatography with tandem mass spectrometry detection (LC/MS/MS) using multiple reaction monitoring (MRM). Data are presented as intrinsic Clearance (CLint), μl/min/mg protein, calculated from the initial linear part of the compound disappearance curve.

Row | SMILES | IC50 [1] | microsomal CLint at 2.5 μM [2]
1 | CC(C)COc1ccccc1CN1CCC2(CC1)CCN(C(=O)c1ccccc1CC(=O)O)CC2 [A, (2-{[9-(2-isobutoxybenzyl)-3,9-diazaspiro[5.5]undec-3-yl]carbonyl}phenyl)acetic Acid, reference compound] | 1.06 µM | –
2 | CC(C)COc1ccccc1CN1CCC2(CC1)CCN(C(=O)c1ccccc1C(=O)O)CC2 [B, 2-{[9-(2-isobutoxybenzyl)-3,9-diazaspiro[5.5]undec-3-yl]carbonyl}benzoic Acid, reference compound] | 1.37 µM | –
3 | O=C(O)Cc1ccccc1C(=O)N1CCC2(CCN(Cc3ccccc3Oc3ccccc3)CC2)CC1 [Example 1, (2-{[9-(2-phenoxybenzyl)-3,9-diazaspiro[5.5]undec-3-yl]carbonyl}phenyl)acetic Acid] | 0.643 µM | < 10 µL/min/mg
4 | O=C(O)Cc1cc(Cl)ccc1C(=O)N1CCC2(CCN(Cc3ccccc3Oc3ccccc3)CC2)CC1 [Example 2, (5-chloro-2-{[9-(2-phenoxybenzyl)-3,9-diazaspiro[5.5]undec-3-yl]carbonyl}phenyl)acetic Acid] | 0.196 µM | < 10 µL/min/mg
5 | O=C(O)Cc1ccccc1C(=O)N1CCC2(CCN(Cc3cccc(Oc4ccccc4)c3)CC2)CC1 [Example 3, (2-{[9-(3-phenoxybenzyl)-3,9-diazaspiro[5.5]undec-3-yl]carbonyl}phenyl)acetic Acid] | 0.144 µM | < 10 µL/min/mg
6 | COc1ccccc1Oc1ccccc1CN1CCC2(CC1)CCN(C(=O)c1ccccc1CC(=O)O)CC2 [Example 4, [2-({9-[2-(2-methoxyphenoxy)benzyl]-3,9-diazaspiro[5.5]undec-3-yl}carbonyl)phenyl]acetic Acid] | 0.058 µM | < 10 µL/min/mg
7 | COc1ccccc1Oc1ccccc1CN1CCC2(CC1)CCN(C(=O)c1ccc(Cl)cc1CC(=O)O)CC2 [Example 5, [5-chloro-2-({9-[2-(2-methoxyphenoxy)benzyl]-3,9-diazaspiro[5.5]undec-3-yl}carbonyl)phenyl]acetic Acid] | 0.017 µM | < 10 µL/min/mg
8 | COc1ccccc1Oc1ccccc1CN1CCC2(CC1)CCN(C(=O)c1cc(Cl)c(Cl)cc1C(=O)O)CC2 [Example 6, 4,5-dichloro-2-({9-[2-(2-methoxyphenoxy)benzyl]-3,9-diazaspiro[5.5]undec-3-yl}carbonyl)benzoic Acid] | 0.081 µM | 16 µL/min/mg
9 | COc1ccccc1Oc1ccccc1CN1CCC2(CC1)CCN(C(=O)c1ccccc1NC(=O)C(=O)O)CC2 [Example 7, {[2-({9-[2-(2-methoxyphenoxy)benzyl]-3,9-diazaspiro[5.5]undec-3-yl}carbonyl)phenyl]amino}(oxo)acetic Acid] | 0.1 µM | < 10 µL/min/mg
10 | COc1ccccc1Oc1cccc(CN2CCC3(CC2)CCN(C(=O)c2ccccc2CC(=O)O)CC3)c1 [Example 8, [2-({9-[3-(2-methoxyphenoxy)benzyl]-3,9-diazaspiro[5.5]undec-3-yl}carbonyl)phenyl]acetic Acid] | 0.042 µM | < 10 µL/min/mg
11 | COc1ccccc1Oc1cccc(CN2CCC3(CC2)CCN(C(=O)c2ccccc2C(=O)O)CC3)c1 [Example 9, 2-({9-[3-(2-methoxyphenoxy)benzyl]-3,9-diazaspiro[5.5]undec-3-yl}carbonyl)benzoic Acid] | 0.071 µM | < 10 µL/min/mg
12 | COc1ccccc1Oc1cccc(CN2CCC3(CC2)CCN(C(=O)c2ccc(OCC(=O)O)cc2)CC3)c1 [Example 10, [4-({9-[3-(2-methoxyphenoxy)benzyl]-3,9-diazaspiro[5.5]undec-3-yl}carbonyl)phenoxy]acetic Acid] | 0.405 µM | < 10 µL/min/mg
13 | COc1ccccc1Oc1cccc(CN2CCC3(CC2)CCN(C(=O)c2ccccc2OCC(=O)O)CC3)c1 [Example 11, [2-({9-[3-(2-methoxyphenoxy)benzyl]-3,9-diazaspiro[5.5]undec-3-yl}carbonyl)phenoxy]acetic Acid] | 0.52 µM | < 10 µL/min/mg
14 | COc1ccccc1Oc1cccc(CN2CCC3(CC2)CCN(C(=O)c2ccc(Cl)cc2)CC3)c1 [Y, 3-(4-chlorobenzoyl)-9-[3-(2-methoxyphenoxy)benzyl]-3,9-diazaspiro[5.5]undecane, reference compound] | – | > 200 µL/min/mg
